Molecules are shown by their SMILES.

These results are taken from patent publication US9187463B2, “Polymorph form of 4-{[4-({[4-(2,2,2-trifluoroethoxy)-1,2-benzisoxazol-3-yl]oxy}methyl)piperidin-1-yl]methyl}-tetrahydro-2H-pyran-4-carboxylic acid” (RAQUALIA PHARMA INC., priority 2011, dated 2015).

Holding throughout (assay type): physicochemical
Data set [1] can be described thus: Hygroscopicity study by dynamic vapor sorption (DVS) analysis. The conditions noted are these: for weight gain %: 25° C., DVS sorption. On the procedure:
Hygroscopicity study is performed using Surface Measurement Systems DVS-1. The sample is placed on a microbalance in the instrument. After the sample is dried under 0% humidity environment at 25° C., relative humidity is raised to 95% RH at 5% RH increments, maintaining the sample at each step until equilibration had been attained. After completion of the sorption cycle, the sample is dried to 10% RH using the same procedure (desorption cycle). The weight change during the sorption/desorption cycle is monitored, allowing for the hygroscopic nature of the sample to be determined.
In the hygroscopicity study by dynamic vapor sorption (DVS) analysis, Polymorph Form I absorbs less than 0.2 wt % under 90% relative humidity (RH) at 25° C. On the other hand, the white solid disclosed in the prior art WO2006/090224 absorbs 1.2 wt % and 5.5 wt % of water under 85% RH and 90% RH, respectively.

Data set [2] is described as follows: Solid-state stability study (temperature/humidity chamber, Xenon lamp). How it is done:
Solid-state stability study is performed using Nagano Science Constant temperature/humidity control chamber LH-20-11M, LH-21-11M, LTL-200D3CJ-14 or LTX-01. The sample is placed in the chamber and exposed under 25° C./60% RH, 40° C./75% RH and/or irradiated with a Xenon lamp. The crystalline form, thermal behavior, purity and/or weight change of the resultant sample after the exposure or irradiation are evaluated by XRPD, TG/DTA or DSC, HPLC, microbalance analysis, respectively.

Data set [3] in a line: Thermal polymorph transformation monitored by variable-temperature PXRD. The following applies: heating. How it is done:
The PXRD analyses are performed using a Rigaku RINT-TTR X-ray powder diffractometer using Cu-Kα radiation. The samples can also be measured under the high/low temperature condition by using the attachment of the variant-temperature sample holder. The instrument is equipped with a fine focus X-ray tube. The tube voltage and amperage are set to 50 kV and 300 mA respectively. The divergence and scattering slits are set at 0.25° and the receiving slit is set at 0.15 mm. Diffracted radiation is detected by a NaI scintillation detector. A theta-two theta continuous scan at 4°/min (step size 0.02°) from 3 to 40 2-Theta° is used. A silicon standard is analyzed to check the machine alignment. Data are collected and analyzed using-Rigaku X-ray system. Samples are prepared for analysis by placing them in an aluminum sample holder that is horizontally rotated at 60 rpm during data acquisition.
Polymorph Form I begins to transform to Polymorph Form II at around 110° C. […]

[4] abbreviates: 90% relative humidity (RH) at 25° C.

With `O=C(O)C1(CN2CCC(COc3noc4cccc(OCC(F)(F)F)c34)CC2)CCOCC1` [Polymorph Form I, 4-{[4-({[4-(2,2,2-trifluoroethoxy)-1,2-benzisoxazol-3-yl]oxy}methyl)piperidin-1-yl]methyl}-tetrahydro-2H-pyran-4-carboxylic acid], the weight gain % is 0.15% in data set [1] (75% RH), 0.15% in data set [1] (80% RH), 0.15% in data set [1] (85% RH) and 0.18% in data set [1] (90% RH). Further, the “water absorbed (DVS)” value in data set [1] (setting [4]) is listed as “less than 0.2 wt %”. For the same compound, the “stability compared with white solid of WO2006/090224” value in data set [2] is reported as “more stable than white solid”. For the same compound, the “temperature at which transformation to Polymorph Form II begins” value in data set [3] is “around 110 °C”.

In the case of `O=C(O)C1(CN2CCC(COc3noc4cccc(OCC(F)(F)F)c34)CC2)CCOCC1` [Polymorph Form II, 4-{[4-({[4-(2,2,2-trifluoroethoxy)-1,2-benzisoxazol-3-yl]oxy}methyl)piperidin-1-yl]methyl}-tetrahydro-2H-pyran-4-carboxylic acid], in data set [2], the “stability compared with white solid of WO2006/090224” value is “more stable than white solid”.

With `O=C(O)C1(CN2CCC(COc3noc4cccc(OCC(F)(F)F)c34)CC2)CCOCC1` [White solid disclosed in the prior art WO2006/090224] [4-{[4-({[4-(2,2,2-Trifluoroethoxy)-1,2-benzisoxazol-3-yl]oxy}methyl)piperidin-1-yl]methyl}-tetrahydro-2H-pyran-4-carboxylic acid], the weight gain % was 0.33% in data set [1] (75% RH), 0.35% in data set [1] (80% RH), 1.2% in data set [1] (85% RH) and 5.5% in data set [1] (90% RH). Further, the “water absorbed (DVS)” value in data set [1] (85% RH) came to 1.2 wt %; in data set [1] (setting [4]) it was 5.5 wt %.
